Source: patent US20250213701A1, “MEDICAMENT FOR TREATING HUMAN TUMOR BASED ON ERF3A-TARGETING PROTEOLYSIS MECHANISM” (SUZHOU DEGEN BIO-MEDICAL CO., LTD., priority 2022, published 2025)

Key:
Format in all cases: cell-based
[1] = system: PC-3 cells; test: Anti-proliferative toxicity of C63 in tumor cell lines (CCK8): PC-3; details: Homo sapiens, 72 h, 3 days, read-out: Inhibition rate
Description: (§1) Example 83: Detection of Anti-Proliferative Toxicity of C63 in Some Tumor Cell Lines
PC-3 cells (purchased from the Cell Bank of the Chinese Academy of Sciences, Cat. No. SCSP-532) were subcultured in a culture medium (F12K medium+1% penicillin-streptomycin dual-antibiotic solution+10% fetal bovine serum) in an incubator at […] and 37° C.
PC-3 cells were seeded at 4000 cells/well (90 μL) on a 96-well plate and cultured for 24 h.
(§2) 10 mM compound stock solutions were prepared in DMSO.
(§3) The compound stock solution was diluted with DMSO to give DMSO solutions 1-9 at concentrations of 0 μM, 2500 μM, 500 μM, 100 μM, 20 μM, 4 μM, 0.8 μM, 0.16 μM, and 0.032 μM.
(§4) 2 μL of each of solutions 1-9 was added to 98 μL of the medium to give mixed solutions 11-19 of the compound and the medium.
(§5) 10 μL of each of solutions 11-19 was added to the above cell seed solution to give a total volume of 100 μL (90 μL+10 μL).
(§6) The concentrations of the compound in the wells were 0 μM, 5.0 μM, 1.0 μM, 0.2 μM, 0.04 μM, 0.008 μM, 0.0016 μM, 0.00032 μM, and 0.000064 μM. All concentrations were in triplicate.
(§7) After the above-treated cells were cultured for 3 days, 10 μL of the CCK8 solution (DOJINDO, Cat. No. PF725) was added to each well. The plate was incubated in an incubator at 37° C. for 1-4 h and then detected on a microplate reader for the reading at 450 nm.

[2] = system: Ca Ski cells; test: Anti-proliferative toxicity of C63 in tumor cell lines (CCK8): Ca Ski; details: Homo sapiens, 72 h, 3 days, read-out: Inhibition rate
Description: as §1
(§8) Ca Ski cells (purchased from the Cell Bank of the Chinese Academy of Sciences, Cat. No. TCHu137) were subcultured in a culture medium (RPMI-1640 medium+1% penicillin-streptomycin dual-antibiotic solution+10% fetal bovine serum) in an incubator at 5% carbon dioxide and 37° C.
Ca Ski cells were seeded at 5000 cells/well (90 μL) on a 96-well plate and cultured for 24 h.
as §2, §3, §4, §5, §6, §7

[3] = system: OVCAR-3 cells; test: Anti-proliferative toxicity of C63 in tumor cell lines (CCK8): OVCAR-3; details: Homo sapiens, 72 h, 3 days, read-out: Inhibition rate
Description: as §1
as §8, with “OVCAR-3” for “Ca Ski”, “TCHu228)” for “TCHu137)”, “solution++20%” for “solution+10%”, “serum+0.01 mg/mL recombinant human insulin)” for “serum)”
OVCAR-3 cells were seeded at 2000 cells/well (90 μL) on a 96-well plate and cultured for 24 h.
as §2, §3, §4, §5, §6, §7

[4] = system: HGC-27 cells; test: Anti-proliferative toxicity of C63 in tumor cell lines (CCK8): HGC-27; details: Homo sapiens, 72 h, 3 days, read-out: Inhibition rate
Description: as §1
HGC-27 cells (purchased from the Cell Bank of the Chinese Academy of Sciences, Cat. No. TCHu22) were subcultured in a culture medium (RPMI-1640 medium+1% penicillin-streptomycin dual-antibiotic solution++20% fetal bovine serum) in an incubator at 5% carbon dioxide and 37° C.
HGC-27 cells were seeded at 3000 cells/well (90 μL) on a 96-well plate and cultured for 24 h.
as §2, §3, §4, §5, §6, §7

[5] = system: U251 cells; test: Anti-proliferative toxicity of C63 in tumor cell lines (CCK8): U251; details: Homo sapiens, U-251, 72 h, 3 days, read-out: Inhibition rate
Description: as §1
U251 cells (purchased from the Cell Bank of the Chinese Academy of Sciences, Cat. No. TCHu58) were subcultured in a culture medium (DMEM medium+1% penicillin-streptomycin dual-antibiotic solution+10% fetal bovine serum) in an incubator at 5% carbon dioxide and 37° C.
U251 cells were seeded at 2000 cells/well (90 μL) on a 96-well plate and cultured for 24 h.
as §2, §3, §4, §5, §6, §7

C[C@]12C=CC(=O)N[C@@H]1CC[C@@H]1[C@@H]2CC[C@]2(C)[C@@H](C(=O)Nc3cccc(N[C@@H]4CCC[C@@H](Nc5cccc6c5C(=O)N([C@H]5CCC(=O)NC5=O)C6=O)C4)c3)CC[C@@H]12 [C63, N-(3-(N—(N-(4-(2-(3S-(2,6-dioxopiperidine))-isoindole-1,3-dione))-1R,3R-cyclohexanediamine))phenyl)-3-oxo-4-aza-5α-androst-1-ene-17β-carboxamide]
inhibition at 64 pM ([1]; 0.000064 μM): 45.1%
inhibition at 0.00032 µM ([1]; 0.000320 μM): 65.1%
inhibition at 0.0016 µM ([1]; 0.001600 μM): 78.8%
inhibition at 0.008 µM ([1]; 0.008000 μM): 82.8%
inhibition at 0.04 µM ([1]; 0.040000 μM): 80.2%
inhibition at 0.2 µM ([1]; 0.200000 μM): 78.4%
inhibition at 1 µM ([1]; 1.000000 μM): 78.4%
inhibition at 5 µM ([1]; 5.000000 μM): 82.1%
inhibition at 64 pM ([2]; 0.000064 μM): 2.03%
inhibition at 0.00032 µM ([2]; 0.000320 μM): 6.27%
inhibition at 0.0016 µM ([2]; 0.001600 μM): 42.9%
inhibition at 0.008 µM ([2]; 0.008000 μM): 65.4%
inhibition at 0.04 µM ([2]; 0.040000 μM): 73.9%
inhibition at 0.2 µM ([2]; 0.200000 μM): 78%
inhibition at 1 µM ([2]; 1.000000 μM): 77.8%
inhibition at 5 µM ([2]; 5.000000 μM): 78.1%
inhibition at 64 pM ([3]; 0.000064 μM): 17.9%
inhibition at 0.00032 µM ([3]; 0.000320 μM): 16.4%
inhibition at 0.0016 µM ([3]; 0.001600 μM): 42.6%
inhibition at 0.008 µM ([3]; 0.008000 μM): 61.4%
inhibition at 0.04 µM ([3]; 0.040000 μM): 74.4%
inhibition at 0.2 µM ([3]; 0.200000 μM): 80%
inhibition at 1 µM ([3]; 1.000000 μM): 83.7%
inhibition at 5 µM ([3]; 5.000000 μM): 85%
inhibition at 64 pM ([4]; 0.000064 μM): 7.74%
inhibition at 0.00032 µM ([4]; 0.000320 μM): 9.52%
inhibition at 0.0016 µM ([4]; 0.001600 μM): 80%
inhibition at 0.008 µM ([4]; 0.008000 μM): 94.2%
inhibition at 0.04 µM ([4]; 0.040000 μM): 97.1%
inhibition at 0.2 µM ([4]; 0.200000 μM): 98.3%
inhibition at 1 µM ([4]; 1.000000 μM): 98.2%
inhibition at 5 µM ([4]; 5.000000 μM): 97.7%
inhibition at 64 pM ([5]; 0.000064 μM): 22%
inhibition at 0.00032 µM ([5]; 0.000320 μM): 21.7%
inhibition at 0.0016 µM ([5]; 0.001600 μM): 53.4%
inhibition at 0.008 µM ([5]; 0.008000 μM): 67.8%
inhibition at 0.04 µM ([5]; 0.040000 μM): 69%
inhibition at 0.2 µM ([5]; 0.200000 μM): 71.7%
inhibition at 1 µM ([5]; 1.000000 μM): 72.2%
inhibition at 5 µM ([5]; 5.000000 μM): 72.2%
